Reference: US4118561A, “7-(Substituted)-7H-pyrrolo[3,2-f]quinazoline-1,3-diamines” (priority 1977, dated 1978)
Values after ≈ are worked out from the molar mass of the structure shown.

Columns and labels:
S. aureus Smith = test: In vitro antibacterial activity (MIC), S. aureus Smith; conditions: Staphylococcus aureus, 18 h
S. paratyphi 11737 = test: In vitro antibacterial activity (MIC), S. paratyphi 11737; type: cell-based; conditions: Salmonella enterica, 18 h
S. aureus 53-180 = test: In vitro antibacterial activity (MIC), S. aureus 53-180; conditions: Staphylococcus aureus, 53180, 18 h
E. coli 9637 = test: In vitro antibacterial activity (MIC), E. coli 9637; conditions: Escherichia coli, 9637, 18 h
N. catarrhalis 8193 = test: In vitro antibacterial activity (MIC), N. catarrhalis 8193; conditions: 18 h
K. pneumoniae 10031 = test: In vitro antibacterial activity (MIC), K. pneumoniae 10031; conditions: Klebsiella pneumoniae, 10031, 18 h
P. vulgaris 6896 = test: In vitro antibacterial activity (MIC), P. vulgaris 6896; conditions: Proteus vulgaris, 6896, 18 h

| Structure (SMILES) | MIC (S. aureus Smith) [µg/mL] | MIC (S. paratyphi 11737) [µg/mL] | MIC (S. aureus 53-180) [µg/mL] | MIC (E. coli 9637) [µg/mL] | MIC (N. catarrhalis 8193) [µg/mL] | MIC (K. pneumoniae 10031) [µg/mL] | MIC (P. vulgaris 6896) [µg/mL] |
| --- | --- | --- | --- | --- | --- | --- | --- |
| Nc1nc(N)c2c(ccc3c2ccn3Cc2cscn2)n1 [Example 42] | 0.488 (≈ 1.65 µM) | 0.976 (≈ 3.29 µM) | 0.244 (≈ 0.823 µM) | 0.244 (≈ 0.823 µM) | 0.0038 (≈ 0.0128 µM) | 0.122 (≈ 0.412 µM) | 0.976 (≈ 3.29 µM) |
| N#Cc1cc([N+](=O)[O-])ccc1-n1ccc2c3c(N)nc(N)nc3ccc21 [Example 79] | 0.488 (≈ 1.41 µM) | > 250 | 0.488 (≈ 1.41 µM) | 15.6 (≈ 45.2 µM) | 0.244 (≈ 0.707 µM) | 1.95 (≈ 5.65 µM) | > 250 |
| COc1cccc(Cn2ccc3c4c(N)nc(N)nc4ccc32)c1OC [Example 35] | 0.488 (≈ 1.4 µM) | 15.6 (≈ 44.6 µM) | 0.244 (≈ 0.698 µM) | 0.488 (≈ 1.4 µM) | 0.122 (≈ 0.349 µM) | 0.488 (≈ 1.4 µM) | 7.81 (≈ 22.4 µM) |
| Cc1cc2c3c(N)nc(N)nc3ccc2n1Cc1ccc(C#N)cc1 [Example 102] | 0.976 (≈ 2.97 µM) | 7.81 (≈ 23.8 µM) | 0.976 (≈ 2.97 µM) | 1.95 (≈ 5.94 µM) | 0.061 (≈ 0.186 µM) | 0.244 (≈ 0.743 µM) | 31.3 (≈ 95.3 µM) |
| Cc1cc(C)cc(Cn2ccc3c4c(N)nc(N)nc4ccc32)c1 [Example 26] | 0.976 (≈ 3.08 µM) | 15.6 (≈ 49.1 µM) | 0.488 (≈ 1.54 µM) | 7.81 (≈ 24.6 µM) | 0.031 (≈ 0.0977 µM) | 0.244 (≈ 0.769 µM) | 15.6 (≈ 49.1 µM) |
| Nc1nc(N)c2c(ccc3c2ccn3-c2ncccn2)n1 [Example 84] | 15.6 (≈ 56.3 µM) | > 250 | 3.9 (≈ 14.1 µM) | 7.81 (≈ 28.2 µM) | 0.061 (≈ 0.22 µM) | 0.976 (≈ 3.52 µM) | > 250 |
| Cc1cccc(C)c1Cn1ccc2c3c(N)nc(N)nc3ccc21 [Example 24] | 250 (≈ 788 µM) | > 250 | 250 (≈ 788 µM) | 250 (≈ 788 µM) | 0.122 (≈ 0.384 µM) | 15.6 (≈ 49.1 µM) | > 250 |
| Cn1ccc2c3c(N)nc(N)nc3ccc21 [Example 65, 7-Methyl-7H-pyrrolo[3,2-f]quinazoline-1,3-diamine] | 62.5 (≈ 293 µM) | 3.9 (≈ 18.3 µM) | 7.81 (≈ 36.6 µM) | 0.976 (≈ 4.58 µM) | 0.031 (≈ 0.145 µM) | 1.95 (≈ 9.14 µM) | 1.95 (≈ 9.14 µM) |
| Nc1nc(N)c2c(ccc3c2ccn3-c2ccc([N+](=O)[O-])cc2C(F)(F)F)n1 [Example 94] | 0.122 (≈ 0.314 µM) | 62.5 (≈ 161 µM) | 0.122 (≈ 0.314 µM) | 31.3 (≈ 80.6 µM) | 0.061 (≈ 0.157 µM) | 0.488 (≈ 1.26 µM) | 125 (≈ 322 µM) |
| Cn1c(-c2ccccc2)cc2c3c(N)nc(N)nc3ccc21 [Example 106, 7-Methyl-8-phenyl-7H-pyrrolo[3,2-f]-quinazoline-1,3-diamine] | 62.5 (≈ 216 µM) | > 250 | 125 (≈ 432 µM) | > 250 | 31.3 (≈ 108 µM) | 3.9 (≈ 13.5 µM) | > 250 |
| Nc1nc(N)c2c(ccc3c2ccn3-c2ccnc3cc(Cl)ccc23)n1 [Example 89] | 0.488 (≈ 1.35 µM) | > 250 | 0.122 (≈ 0.338 µM) | 15.6 (≈ 43.2 µM) | 0.244 (≈ 0.676 µM) | 0.488 (≈ 1.35 µM) | 250 (≈ 693 µM) |
| COc1cc(Cn2ccc3c4c(N)nc(N)nc4ccc32)cc(OC)c1 [Example 58] | 0.488 (≈ 1.4 µM) | 1.95 (≈ 5.58 µM) | 0.244 (≈ 0.698 µM) | 0.976 (≈ 2.79 µM) | 0.061 (≈ 0.175 µM) | 0.122 (≈ 0.349 µM) | 15.6 (≈ 44.6 µM) |
| Nc1nc(N)c2c(ccc3[nH]c(-c4ccccc4)cc32)n1 [Example 105, 8-Phenyl-7H-pyrrolo[3,2-f]-quinazoline-1,3-diamine] | 7.81 (≈ 28.4 µM) | 125 (≈ 454 µM) | 15.6 (≈ 56.7 µM) | 62.5 (≈ 227 µM) | 62.5 (≈ 227 µM) | 31.3 (≈ 114 µM) | > 250 |
| Nc1nc(N)c2c(ccc3c2ccn3-c2cnccn2)n1 [Example 85] | 3.9 (≈ 14.1 µM) | 3.9 (≈ 14.1 µM) | 1.95 (≈ 7.03 µM) | 0.976 (≈ 3.52 µM) | 0.122 (≈ 0.44 µM) | 0.976 (≈ 3.52 µM) | 3.9 (≈ 14.1 µM) |
| Nc1nc(N)c2c(ccc3c2ccn3Cc2ccc3ccccc3c2Br)n1 [Example 60] | 31.3 (≈ 74.8 µM) | > 250 | 15.6 (≈ 37.3 µM) | > 250 | 0.488 (≈ 1.17 µM) | 15.6 (≈ 37.3 µM) | > 250 |
